Measurements reported in US20240271100A1, “IN VITRO DIFFERENTIATION OF PANCREATIC ENDOCRINE CELLS” (VERTEX PHARMACEUTICALS INCORPORATED, priority 2020, published 2024).

Tests used:
[1] = target: EZH2 (Homo sapiens, UniProt Q15910); conditions: cited from earlier work
[2] = system: PDX1-positive, NKX6.1-positive pancreatic progenitor cells; test: FGF2 applied at S5 day 1 and day 2 of the Version A differentiation protocol; flow cytometry on S6d1; assay type: cell-based, human; conditions: FGF2 100 ng/mL at S5 day 1 and day 2; FIGS. 8A-8B
Procedure: (§1) For initial steps, basically, human pluripotent stem cell line SEM01 was thawed from a 3D suspension bank and seeded at a density of 1M cells/ml into 500 ml spinner flasks (Corning; 89,089-814) with 300 ml Nutristem media (Biological Industries 05-100-1A) supplemented with […] Y27632 (ab120129) and 100 ng/ml FGF2 (Peprotech RUO: 100-18B-1MG). Spinner flasks were placed on a magnetic stir plate (Chemglass) rotating at 60 r.p.m. in a humidified 37 C incubator set at 5% CO2. Cells were passaged every 72 hours. After 3 passages, cells were seeded at 0.5M cells/ml density and fed every 24 hours until 72 hours. Then, differentiation was initiated in spinner flasks using the Version A differentiation protocol which begins on day 1 of Stage 1 (S1, day 1). FGF2 was added to Stage 3, Stage 4, or Stage 5 as detailed below in the modified protocol.
(§2) Version A protocol is a 6-stage stepwise protocol. With Version A protocol, stem cells were treated with reagents in the following consecutive orders during the six stages: Stage 1 (S1), Activin-A for 3 days and also CHIR99021 for the first 24 hr; Stage 2 (S2), KGF for 3 days; Stage 3 (S3), KGF, PDBU, Sant-1, retinoic acid (RA), Activin A, and Thiazovivin for 2 days, and also DMH-1 for the first day; Stage 4 (S4), KGF, Sant-1, Thiazovivin, Activin A, and RA for 6 days; Stage 5 (S5), XXI, Alk5i, GC-1, LDN-193189, Thiazovivin, Staurosporine, and DZNEP for 7 days, and also RA, Sant-1, and Betacellulin for the first 2 days.
Upon completion of Stage 5, on Stage 6 day 1 (S6dl), the cells were collected, dispersed, and analyzed by flow cytometry. […] Stained cells were measured using an Accuri 6 flow cytometer (BD Biosciences) and analyzed using Accuri software.
In one experiment, Version A protocol, as described in Example 1, was compared with a modified protocol in which 100 ng/mL FGF2 was added on protocol day 15 and day 16 (Stage 5 day 1 and day 2). As described above, on S6dl, the cells were collected, dispersed, and analyzed by flow cytometry.

[3] = system: PDX1-positive pancreatic progenitor cells; test: FGF2 applied during S4 of the Version A differentiation protocol; flow cytometry of the resulting endocrine cell population; assay type: cell-based, human
Procedure: as §1, §2
(§3) Upon completion of Stage 5, on Stage 6 day 1 (S6dl), the cells were collected, dispersed, and analyzed by flow cytometry. Briefly, islets were dispersed with TrypLE Express (Life Technologies; 12,604,013) at 37 C, fixed with 4% PFA for 20 mins at 4 C, blocked by 1 hour in FACS buffer (5% Donkey Serum and 0.1% Saponin in PBS) at room temperature, stained with NKX6.1 (DSHB FSSA12 1:100) and ISL1 (ab178400 1:500) antibodies diluted in FACS buffer overnight at 4 C. The next day, cells were washed twice with FACS buffer, stained with secondary antibody: anti-Rabbit AlexaFluor-488 (A31573 1:1000) and anti-Mouse Alexa Fluro-647 (A31571 1:1000) diluted in FACS buffer, and washed twice with FACS buffer. Stained cells were measured using an Accuri 6 flow cytometer (BD Biosciences) and analyzed using Accuri software.
In one experiment, Version A protocol, as described in Example 1, was compared with a modified protocol in which 100 ng/mL FGF2 was added on day 1, 3, and 5 of S4 to the culture medium. As described above, on S6dl, the cells were collected, dispersed, and analyzed by flow cytometry.

[4] = system: primitive gut tube cells; test: FGF2 applied during S3 of the Version A differentiation protocol; flow cytometry of the resulting endocrine cell population; assay type: cell-based, human
Procedure: An exemplary differentiation protocol, Version A, according to the present disclosure and its modified version, which added use of FGF2 at Stage 3, were tested for differentiating human stem cells into mature β cells capable of releasing insulin in response to glucose challenge in vitro.
as §1, §2
In one experiment, on protocol day 7 (S3, day 1; S3dl), 10 mL of cell clusters were taken from the spinner flask and aliquoted into 2 wells of ultra-low attachment 6-well plates (Corning 29443) (5 mL/well). The plate was placed on an orbital shaker set to 130 rpm in the incubator. Cells received either control Version A conditions as described above or were supplemented with FGF2 (100 ng/ml) on protocol day 7 and day 8 only (S3d1 and S3d2).
as §3

[5] = system: Stage 6 cells (NKX6.1-positive, ISL1-positive endocrine cells); test: FGF2 applied at S6 of the Version A or Version B differentiation protocol; cell composition by flow cytometry; assay type: cell-based, human
Procedure: In one experiment, the effect of FGF2 treatment at S6 was examined by comparing Stage 6 cells generated with Version A protocol, as described in Example 1, or with Version A protocol plus FGF2 treatment (100 ng/mL) at S6 for the first 3 days.
In another experiment, the effect of FGF2 treatment at S6 was examined by comparing S6 cells generated under four differentiation conditions: Version A protocol; Version A protocol + FGF2 treatment (100 ng/mL for the first 12 days) at S6; Version B protocol; Version B protocol+ FGF2 treatment at S6. Version B protocol shares similar reagents and treatment timing with […], in Version B protocol, one difference from Version A protocols is that the cells were supplemented with 500 nM PDBU from day 5 of Stage 4 (S4d5) to day 2 of […] (S5d2). […]

[6] = FGF2 100 ng/mL at S4 versus Version A without FGF2, FIG. 2B
[7] = FGF2 treatment at S4, FIGS. 8A-8B
[8] = FGF2 treatment at S3, by the end of S5, FIGS. 8A-8B
[9] = FGF2 treatment at S6, summary FIG. 8A
[10] = Version B protocol, FGF2 at S6, by S6d8 and S6d12, FIGS. 5A-C

Sequence of EZH2 (Q15910 whole entry, species assumed): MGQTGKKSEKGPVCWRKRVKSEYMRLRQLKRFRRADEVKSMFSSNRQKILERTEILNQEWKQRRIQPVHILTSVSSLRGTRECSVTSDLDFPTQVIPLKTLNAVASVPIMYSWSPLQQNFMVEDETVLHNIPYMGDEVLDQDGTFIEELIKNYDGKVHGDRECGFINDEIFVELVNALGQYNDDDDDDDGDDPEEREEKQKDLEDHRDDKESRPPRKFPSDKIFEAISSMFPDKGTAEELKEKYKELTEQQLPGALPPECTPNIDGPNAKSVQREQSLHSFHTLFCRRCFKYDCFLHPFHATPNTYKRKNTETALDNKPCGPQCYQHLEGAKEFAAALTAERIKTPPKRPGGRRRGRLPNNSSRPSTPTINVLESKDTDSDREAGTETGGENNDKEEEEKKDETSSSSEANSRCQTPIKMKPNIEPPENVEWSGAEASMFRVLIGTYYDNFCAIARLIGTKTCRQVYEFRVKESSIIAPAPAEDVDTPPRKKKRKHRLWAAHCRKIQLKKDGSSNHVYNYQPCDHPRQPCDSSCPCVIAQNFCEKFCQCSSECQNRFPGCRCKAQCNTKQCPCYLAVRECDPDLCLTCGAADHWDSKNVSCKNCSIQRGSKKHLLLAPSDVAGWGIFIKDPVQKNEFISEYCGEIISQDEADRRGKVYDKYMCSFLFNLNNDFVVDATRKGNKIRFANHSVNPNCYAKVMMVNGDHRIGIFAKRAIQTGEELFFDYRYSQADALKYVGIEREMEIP
Sequence of EZH2 (O75530 whole entry partner, species assumed): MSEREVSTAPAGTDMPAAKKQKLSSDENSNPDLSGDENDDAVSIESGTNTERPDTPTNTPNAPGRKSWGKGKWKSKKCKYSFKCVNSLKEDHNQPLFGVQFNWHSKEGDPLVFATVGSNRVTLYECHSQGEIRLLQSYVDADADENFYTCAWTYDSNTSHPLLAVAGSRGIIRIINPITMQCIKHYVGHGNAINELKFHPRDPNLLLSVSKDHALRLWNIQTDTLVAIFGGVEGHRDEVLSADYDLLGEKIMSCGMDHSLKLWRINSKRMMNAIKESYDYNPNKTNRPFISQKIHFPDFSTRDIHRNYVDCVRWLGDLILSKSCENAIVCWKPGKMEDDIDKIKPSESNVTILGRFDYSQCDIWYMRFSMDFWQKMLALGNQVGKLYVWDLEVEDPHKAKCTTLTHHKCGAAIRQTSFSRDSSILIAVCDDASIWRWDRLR
Sequence of EZH2 (Q15022 whole entry partner, species assumed): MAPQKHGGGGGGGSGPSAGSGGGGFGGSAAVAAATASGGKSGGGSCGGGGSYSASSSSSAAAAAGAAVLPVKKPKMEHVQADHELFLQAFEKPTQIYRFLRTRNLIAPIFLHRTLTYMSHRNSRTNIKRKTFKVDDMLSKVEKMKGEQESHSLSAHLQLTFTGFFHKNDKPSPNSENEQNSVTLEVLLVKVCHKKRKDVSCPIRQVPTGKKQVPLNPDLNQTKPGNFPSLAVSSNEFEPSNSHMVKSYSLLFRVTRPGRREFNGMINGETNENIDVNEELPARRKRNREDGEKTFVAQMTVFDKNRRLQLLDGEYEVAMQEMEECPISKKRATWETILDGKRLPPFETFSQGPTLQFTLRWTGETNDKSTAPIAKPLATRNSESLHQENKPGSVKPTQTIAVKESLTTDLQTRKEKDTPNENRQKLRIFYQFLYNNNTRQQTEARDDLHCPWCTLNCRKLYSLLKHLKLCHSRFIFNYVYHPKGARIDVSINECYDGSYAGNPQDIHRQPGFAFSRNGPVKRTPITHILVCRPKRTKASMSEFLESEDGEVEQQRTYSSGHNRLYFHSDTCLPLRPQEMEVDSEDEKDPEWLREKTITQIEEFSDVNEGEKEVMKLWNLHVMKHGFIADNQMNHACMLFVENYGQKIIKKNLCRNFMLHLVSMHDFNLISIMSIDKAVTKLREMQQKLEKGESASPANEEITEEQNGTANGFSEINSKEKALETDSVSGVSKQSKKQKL

CC[C@H](C)n1cc(C)c2c(C(=O)NCc3c(C)cc(C)[nH]c3=O)cc(-c3ccc(N4CCNCC4)nc3)cc21 [GSK126]
selectivity over EZH1 ([1]; EZH2 versus EZH1): 150 fold

CCCc1cc(C)[nH]c(=O)c1CNC(=O)c1cc(-c2ccc(N3CCN(C(C)C)CC3)nc2)cc2c1cnn2C(C)C [UNC1999]
selectivity compared with GSK126 [1]: less selective

FGF2: growth factor from the FGF family; human FGF2 polypeptide sequence (GenBank Accession NP 001997); Peprotech RUO: 100-18B-1MG
change in SC-EC cells [2]: decrease
change in SC-α cells [2]: increase
change in percentage of SC-β cells [2]: no significant change
change in percentage of glucagon-positive, ARX-positive cells [3, 6]: increased
change in percentage of total ARX-positive cells [3, 6]: increased
increase of the percentage of somatostatin-positive SC-δ cells [3, 6]: about two
percentage of NKX6.1-negative, ISL1-positive SC-α cells ([3]; FGF2 100 ng/mL on day 1, 3 and 5 of S4, Version A, flow cytometry on S6d1, without FGF2 5.6%): 12.0%
percentage of NKX6.1-positive, ISL1-positive SC-β cells ([3]; FGF2 100 ng/mL on day 1, 3 and 5 of S4, Version A, flow cytometry on S6d1, without FGF2 around 43%): around 55%
change in percentage of SC-EC cells [3, 7]: decreased
change in percentage of SC-α cells [3, 7]: increase
change in percentage of SC-β cells [3, 7]: increase
change in percentage of SC-δ cells [3, 7]: increase
change in percentage of SOX9-positive cells [3, 7]: decreased
percentage of VMAT1-positive cells ([3]; FGF2 treatment at S4, without FGF2 about 60%, FIG. 3B): about 40%
percentage of SOX9-positive, NKX6.1-positive cells ([3]; FGF2 treatment at S4, without FGF2 around 12.5%): around 5%
percentage of total SOX9-positive cells ([3]; FGF2 treatment at S4, without FGF2 around 20%, FIG. 3A): around 14%
percentage of NKX6.1-positive, ISL1-negative cells ([3]; FGF2 treatment at S4, without FGF2 around 40%, FIG. 3B): around 20%
percentage of SC-α cells that express ISL1, but do not express NKX6.1 ([4]; FGF2 100 ng/ml on S3d1 and S3d2, Version A, flow cytometry on S6d1, without FGF2 9.7%): 35.1%
percentage of SC-enterochromaffin cells (SC-EC) that express NKX6 but not ISL1.1 ([4]; FGF2 100 ng/ml on S3d1 and S3d2, Version A, flow cytometry on S6d1, without FGF2 31.7%): 13.1%
percentage of SC-β cells that express both NKX6.1 and ISL1 ([4]; FGF2 100 ng/ml on S3d1 and S3d2, Version A, flow cytometry on S6d1, without FGF2 49.3%): 36.6%
change in percentage of SC-EC cells [4, 8]: decreased
change in percentage of SC-β cells [4, 8]: decreased
change in percentage of SC-α cells ([4]; FGF2 treatment at S3, cells generated by the end of S5, FIGS. 8A-8B): increased
change in percentage of Ki67-positive cells ([5]; FGF2 at S6, both Version A and Version B protocols): increased
percentage of non-proliferating SOX9-positive cells (SOX9-positive, Ki67-negative) ([5]; FGF2 at S6, by S6d12, both Version A and Version B protocols, without FGF2 15%-25%, FIG. 6A): about 65%
percentage of proliferating SOX9-positive cells (SOX9-positive, Ki67-positive) ([5]; FGF2 at S6, by S6d12, both Version A and Version B protocols, without FGF2 close to zero, FIG. 6B): 15%-20%
change in percentage of proliferating non-SOX9 cells (SOX9-negative, Ki67-positive) ([5]; FGF2 treatment at S6, FIG. 6C): small change
effect on SC-EC cells, as measured by expression of VMAT1, or positivity for NKX6.1 and negativity for ISL1 ([5]; FGF2 treatment at S6, S6d4, S6d8, S6d12, FIGS. 7A-7B): small effect
change in percentage of SC-α cells [5, 9]: increase
change in percentage of SC-β cells [5, 9]: increase
change in percentage of SC-δ cells [5, 9]: increase
percentage of NKX6.1-positive, ISL1-positive SC-β cells ([5]; Version A plus FGF2 100 ng/mL at S6 for the first 3 days, flow cytometry, without FGF2 18.5%): 36.9%
change in percentage of SC-β cell ([5]; Version A protocol, FGF2 100 ng/mL for the first 12 days at S6, by S6d8 and S6d12): relatively unchanged
change in SC-δ cell percentage [5, 10]: increased
change in percentage of SC-α cells [5, 10]: reduced
change in percentage of SC-β cells [5, 10]: reduced
change in SOX9-positive cells ([5]; addition of FGF2 at S6, both Version A and Version B protocols): significantly increased
